This is an account of results in patent US20090036352A1, “DRUG DELIVERY SYSTEMS FOR THE PREVENTION AND TREATMENT OF VASCULAR DISEASES COMPRISING RAPAMYCIN AND DERIVATIVES THEREOF” (priority 2002, published 2009).

Data set [1] concerns rat carotid artery balloon injury model. Nature of the data set: Inhibition of late neointimal lesion formation in the 28 day rat carotid artery balloon injury model. Type of data set: in vivo. Particulars: for percent inhibition of neointimal lesion formation: oral, 28 days post-balloon injury. The protocol:
A1. Inhibition of Late Neointimal Lesion Formation in the 28 Day Rat Carotid Artery Balloon Injury Model
Compounds of formula I are tested in the following rat model.
Rats are dosed orally with placebo or a compound of formula I. Daily dosing starts 3 days prior to surgery and continues for 31 days. Rat carotid arteries are balloon injured using a method described by Clowes et al. Lab. Invest. 1983; 49; 208-215. Following sacrifice at 28 days post-balloon injury, carotid arteries are removed and processed for histologic and morphometric evaluation. […] For example for 40-O-(2-hydroxyethyl)-rapamycin administered at 0.5, 1.0, and 2.0 mg/kg, the percent inhibition is similar at all three doses: inhibition is 31% at the lowest dose (0.5 mg/kg) and 39% at the highest dose (2.0 mg/kg). Compounds of formula I, e.g. 40-O-(2-hydroxyethyl)-rapamycin, have the beneficial effect to inhibit lesions at 4 weeks post-ballooning.

In data set [2] the test system is New Zealand White rabbit iliac arteries. The experiment in a line: Inhibition of restenosis at 28 days in the rabbit iliac stent model. In kind it is in vivo. The protocol:
A.2 Inhibition of Restenosis at 28 Days in the Rabbit Iliac Stent Model
A combined angioplasty and stenting procedure is performed in New Zealand White rabbit iliac arteries. Iliac artery balloon injury is performed by inflating a 3.0×9.0 mm angioplasty balloon in the mid-portion of the artery followed by “pull-back” of the catheter for 1 balloon length. Balloon injury is repeated 2 times, and a 3.0×12 mm stent is deployed at 6 atm for 30 seconds in the iliac artery. Balloon injury and stent placement is then performed on the contralateral iliac artery in the same manner. A post-stent deployment angiogram is performed. All animals receive oral aspirin 40 mg/day daily as anti-platelet therapy and are fed standard low-cholesterol rabbit chow. Twenty-eight days after stenting, animals are anesthetized and euthanized and the arterial tree is perfused at 100 mmHg with lactated Ringer's for several minutes, then perfused with 10% formalin at 100 mmHg for 15 minutes. The vascular section between the distal aorta and the proximal femoral arteries is excised and cleaned of periadventitial tissue. The stented section of artery is embedded in plastic and sections are taken from the proximal, middle, and distal portions of each stent. All sections are stained with hematoxylin-eosin and Movat pentachrome stains. Computerized planimetry is performed to determine the area of the internal elastic lamina (IEL), external elastic lamina (EEL) and lumen. The neointima and neointimal thickness is measured both at and between the stent struts. The vessel area is measured as the area within the EEL. Data are expressed as mean ±SEM. Statistical analysis of the histologic data is accomplished using analysis of variance (ANOVA) due to the fact that two stented arteries are measured per animal with a mean generated per animal. A P<0.05 is considered statistically significant.
A compound of formula I, e.g. 40-O-(2-hydroxyethyl)-rapamycin, is administered orally by gavage at a loading dose of 1.5 mg/kg one day prior to stenting, then dosed at 0.75 mg/kg/day from the day of stenting until day 27 post-stenting. In this model, the treatment with the compounds of formula I results in a marked reduction in the extent of restenotic lesion formation: for example, the treatment with 40-O-(2-hydroxyethyl)-rapamycin produces a significant (P<0.03) reduction in neointimal thickness (40% reduction), neointimal area (24% reduction), and percent arterial stenosis (26% reduction) with a significant 32% increase in lumen area. There is extensive neointimal formation in placebo-treated animals at 28 days, with the lesions consisting of abundant smooth muscle cells in proteoglycan/collagen matrix and apparent full endothelial healing.

Data set [3] relates to ballooned carotid of Sprague Dawley rats. Nature of the data set: Inhibition of restenosis at 14 days in the rat carotid stent model, perivascular local delivery. Particulars: local perivascular administration, 10 to 200 μg/day. Type of data set: in vivo. The protocol:
A.3 Inhibition of Restenosis at 14 Days in the Rat Carotid Stent Model
Male Sprague Dawley rats weighing […] are housed individually and allowed to acclimate prior to surgery. All animals receive standard rat chow and water ad libitum. Group size is 12 animals per group.
The drug(s) administration is perivascular. A segment of ballooned carotid is encircled with a 1 cm length of silastic tubing (0.25 inch inside diameter, 0.47 inch outside diameter) to which is attached a catheter which feeds into an osmotic pump containing either compound or vehicle. This delivery system provides continuous, local delivery to the adventitia of the wrapped portion of vessel. Local drug(s) administration ranges between 5 μg and 10 mg, locally per day, depending on the solubility characteristics of the individual compounds. […]
Animals are killed at 14 days post-balloon injury. […] Animals are killed by administration of an overdose of ketamine and rompun, the osmotic pumps are recovered and the volume of remaining content is recorded to ensure that pump failure has not occurred.
Carotid, arteries are excised and immersion fixed, then transferred to Ringer's solution. […] The intimal lesion area and the medial area are determined by measurement of the internal elastic lamina, the external elastic lamina and the vessel/lumen interface.

The subject of a further data set is dialysis patients. Nature of the data set: Prevention or reduction of vascular access dysfunction after insertion of an indwelling catheter in dialysis patients. Type of data set: in vivo, human. Particulars: daily dose 0.75 to 20 mg, 3 month treatment, observation period 6 months. The protocol:
A5. Prevention or Reduction of Vascular Access Dysfunction in Association with the Insertion of an Indwelling Catheter into the Vein of a Patient
One hundred fifty prospective dialysis patients, who undergo successful insertion of an indwelling, large bore catheter, into a vein are selected for the study. […] In addition, patients may also be given a calcium antagonist, nitrates and/or anti-platelet agents. These drugs are administered for 3 consecutive months following catheter insertion.

A short description of data set [4]: Release of drug from coated stents in PBS or PEG/water. In kind it is physicochemical. Particulars: PBS pH 7.4 or PEG 400/water 40/60 v/v, 37° C., stable = less than 10% of variation of the drug release. How it is done: Four 2 cm pieces of coated stents as described above are placed into 100 ml of phosphate buffer solution (PBS) having a pH of 7.4. Another 4 pieces from each series are placed into 100 ml polyethylene glycol (PEG)/water solution (40/60 v/v, MW of PEG=400). The stent pieces are incubated at 37° C. in a shaker. The buffer and PEG solutions are changed daily and different assays are performed on the solution to determine the released 40-O-(2-hydroxyethyl)-rapamycin concentrations. Such assays can show a stable release of 40-O-(2-hydroxyethyl)-rapamycin from coated stents for more than 45 days. By the term “stable release of 40-O-(2-hydroxyethyl)-rapamycin” is meant less than 10% of variation of the drug release. Controlled release techniques used by a person skilled in the art allow an unexpected easy adaptation of the required drug release rate. Thus, by selecting appropriate amounts of reactants in the coating mixture it is possible to easily control the bioeffectiveness of the rapamycin or rapamycin derivastive coated stents.

The mark [5] stands for this setting: oral gavage, loading 1.5 mg/kg then 0.75 mg/kg/day to day 27, 28 days post-stenting, P<0.03.

In the case of `CO[C@H]1C[C@@H]2CC[C@@H](C)[C@@](O)(O2)C(=O)C(=O)N2CCCC[C@H]2C(=O)O[C@H]([C@H](C)C[C@@H]2CC[C@@H](OCCO)[C@H](OC)C2)CC(=O)[C@H](C)/C=C(\C)[C@@H](O)[C@@H](OC)C(=O)[C@H](C)C[C@H](C)/C=C/C=C/C=C/1C` [40-O-(2-hydroxyethyl)-rapamycin], in data set [1] (oral daily dosing from 3 days prior to surgery for 31 days, 0.5 to 2.0 mg/kg), the “neointimal lesion formation at 28 days following balloon injury” value is “significantly reduce neointimal lesion formation”. Also, the “percent inhibition of neointimal lesion formation” value in data set [1] (0.5 mg/kg) was 31%. In data set [1] (2.0 mg/kg), the “percent inhibition of neointimal lesion formation” value is 39%. Also, the “histology of the intima of stented arterial segments” value in data set [2] (majority of arterial segments, 28 days post-stenting) is “the intima is well healed”. Also, the “endothelialization of stented arteries (scanning electron microscopic analysis)” value in data set [2] (n=4 arteries, 28 days post-stenting) was found to be 84%. Besides, the “increase in lumen area” value in data set [2] (oral gavage, loading 1.5 mg/kg then 0.75 mg/kg/day to day 27, 28 days post-stenting) is recorded as 32%. In data set [2] (setting [5]), the “reduction in neointimal area” value is given as 24%, the “reduction in neointimal thickness” value is recorded as 40% and the “reduction in percent arterial stenosis” value amounted to 26%. For the same compound, the “neointimal lesion formation at 14 days post ballooning” value in data set [3] is on record as “reduces neointimal lesion formation”. For the same compound, the “prevention or reduction of vascular access dysfunction” value in the data set on dialysis patients is “demonstrate the efficacy”. Besides, the “duration of stable release from coated stents” value in data set [4] is “more than 45 days”.
